Source: PubChem BioAssay AID2060891 (Molecular Pharmacology Branch, DTP, NCI, 2025)

Test system: K98450-129-R-PDC complex spheroid growth, percent test/control
Experiment: Anticancer human tumor K98450-129-R-PDC patient-derived colon adenocarcinoma cell line growth inhibition [RAS]
Conditions: for IC50: curve of first compound; for viability, T/C: stronger effect = lower value; active means viability on the fitted dose curve at most 10% of control; inactive means the rest
Source text: RAS pathway inhibitors in Combinations in Complex Spheroids
A high-throughput screen of multi-cell type tumor spheroids was designed to identify active combinations of RAS pathway inhibitors and targeted small molecules. Complex spheroids include a stromal component modeled by human endothelial cells (HUVEC) and fibroblasts modeled by human mesenchymal stem cells (MSCs). The concentration ranges selected for each drug and investigational agent were based upon clinically achievable concentrations if the clinical Cmax of the agent was known.
Compounds. The drugs and investigational agents: abemaciclib (NSC768073), cobimetinib (NSC768068), divarasib (GDC6063, NSC841802), docetaxel (NSC628503), GDC-1971 (RLY-1971, NSC841576), gemcitabine (NSC613327), inavolisib (NSC800729), ipatasertib (NSC767898), KB-0742 (NSC834161), MRTX-1133 (NSC836407), osimertinib (NSC779217), RMC-4630 (NSC839698), RMC-6236 (NSC851965), RMC-6291 (NSC852671), Ro-3306 (NSC812927), sapanisertib (NSC764658), SN-38 (NSC673596), staurosporine (NSC755774), SY5609 (NSC837396), and tovorafenib (DAY101, NSC766906), were obtained from the National Cancer Institute (NCI) Developmental Therapeutics Program Chemical Repository. The FDA-approved anticancer drug set is available from the NCI Developmental Therapeutics Program. […] The stock solutions were prepared in dimethyl sulfoxide (DMSO, Sigma-Aldrich, St. Louis, MO, cat. D2650) at 800-fold the tested concentration and stored at -70 degrees C prior to their use. All drugs and investigational agents were tested over a range starting from a high concentration at or near the clinical Cmax and decreasing in half-log increments. If the clinical Cmax for an agent had not been determined, the highest concentration tested was 10 microM.
Cell Culture. All cells were maintained in an incubator at 37 degrees C and 5% CO2 with 95% humidity. The PDC lines were cultured according to standard operating procedures established by the NCI PDMR. All PDCs were thawed and cultured in Matrigel-coated flasks prepared with a working solution of 1X Ham's F-12 nutrient mix, without supplementation (Invitrogen, Waltham, MA, cat. 11765054), 100 U/mL penicillin-streptomycin (Invitrogen, cat. 15140122), and 2.5% Matrigel (Corning Inc., Corning, NY, cat. 354248) for the first three passages. The 362531-283-R-J2-PDC and 782815-120-R-J1-PDC lines were cultured in 6C/Colon 1B media, which includes advanced DMEM/F-12 (Thermo Fisher Scientific, cat. 12634028), 10 mM HEPES (Thermo Fisher Scientific, cat. 15630080), 1X GlutaMAX supplement (Thermo Fisher Scientific, cat. 35050061), 0.1 mg/mL primocin (InvivoGen, San Diego, CA, cat. ant-pm-2), 10% defined fetal bovine serum, heat inactivated (HyClone Laboratories Inc., Logan, UT, cat. SH30070.03HI), 50% L-WRN conditioned media (ATCC, cat. CRL-3276), 1.25 mM N-Acetyl-L-cysteine (Sigma-Aldrich, cat. A9165), 10 mM nicotinamide (Sigma-Aldrich, cat. N0636), 1X B-27 supplement (Thermo Fisher Scientific, cat. 17504044), 1X N-2 supplement (Thermo Fisher Scientific, cat. 17502048), 50 ng/mL human EGF (Thermo Fisher Scientific, cat. PHG0311), and 10 microM Y-27632 dihydrochloride (Tocris Bioscience, cat. 1254). The K12877-001-R-J1-PDC line was cultured in 6I media, which includes all 6C/Colon 1B media plus 10 ng/mL human FGF-10 (PeproTech, cat. 100-26), 1 ng/mL human FGF-2 (PeproTech, cat. 100-18B), 1 µM prostaglandin E2 (Tocris Bioscience, cat. 2296), […] hydrocortisone (Sigma-Aldrich, cat. H4001), and […] bovine insulin (Sigma-Aldrich, cat. I6634). The K86415-001-R-J1-PDC line was cultured in 6D media, which includes all 6C/Colon 1B media components minus the L-WRN conditioned media. The 485176-168-R4-J1-PDC was cultured in PANC media, which includes all 6C/Colon 1B media plus 100 ng/mL human FGF-10 (PeproTech, cat. 100-26), 500 nM SB-431542 (Selleckchem, cat. S1067), and 10 nM gastrin (Tocris Bioscience, cat. 3006). […]

[1] = second compound 0.0316 µM, first compound 0.0316 µM
[2] = second compound 0.0316 µM, first compound 0.1 µM
[3] = second compound 0.1 µM, first compound 0.0316 µM
[4] = second compound 0.1 µM, first compound 0.1 µM
[5] = second compound 0.316 µM, first compound 0.0316 µM
[6] = second compound 0.316 µM, first compound 0.1 µM
[7] = second compound 1 µM, first compound 0.0316 µM
[8] = second compound 1 µM, first compound 0.1 µM
[9] = second compound 3.16 µM, first compound 0.0316 µM
[10] = second compound 3.16 µM, first compound 0.1 µM
[11] = second compound 10 µM, first compound 0.0316 µM
[12] = second compound 10 µM, first compound 0.1 µM
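Further: spheroids exposed to agents for seven days before the viability readout.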
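Wherever viability, T/C is given: luminescence used as a proxy for viable cell amount.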

CC(C)n1nc(-c2ccc3oc(N)nc3c2)c2c(N)ncnc21 + C#Cc1c(F)ccc2cc(O)cc(-c3ncc4c(N5CC6CCC(C5)N6)nc(OCC56CCCN5CC(F)C6)nc4c3F)c12
> 0.1 µM: IC50 (second compound 0.0316 µM) | IC50 (second compound 0.1 µM) | IC50 (second compound 0.316 µM) | IC50 (second compound 1 µM) | IC50 (second compound 3.16 µM) | IC50 (second compound 10 µM)
inactive: viability, T/C (second compound 0.0316 µM, first compound 0.000316 µM) 110% | viability, T/C (second compound 0.0316 µM, first compound 0.001 µM) 104% | viability, T/C (second compound 0.0316 µM, first compound 0.00316 µM) 101% | viability, T/C (second compound 0.0316 µM, first compound 0.01 µM) 98.4% | viability, T/C [1] 86.5% | viability, T/C [2] 78.3% | viability, T/C (second compound 0.1 µM, first compound 0.000316 µM) 114% | viability, T/C (second compound 0.1 µM, first compound 0.001 µM) 103% | viability, T/C (second compound 0.1 µM, first compound 0.00316 µM) 102% | viability, T/C (second compound 0.1 µM, first compound 0.01 µM) 95.9% | viability, T/C [3] 89.2% | viability, T/C [4] 74.4% | viability, T/C (second compound 0.316 µM, first compound 0.000316 µM) 109% | viability, T/C (second compound 0.316 µM, first compound 0.001 µM) 105% | viability, T/C (second compound 0.316 µM, first compound 0.00316 µM) 104% | viability, T/C (second compound 0.316 µM, first compound 0.01 µM) 98.8% | viability, T/C [5] 93.1% | viability, T/C [6] 71.9% | viability, T/C (second compound 1 µM, first compound 0.000316 µM) 106% | viability, T/C (second compound 1 µM, first compound 0.001 µM) 107% | viability, T/C (second compound 1 µM, first compound 0.00316 µM) 95.1% | viability, T/C (second compound 1 µM, first compound 0.01 µM) 93.8% | viability, T/C [7] 82.9% | viability, T/C [8] 74.7% | viability, T/C (second compound 3.16 µM, first compound 0.000316 µM) 95.6% | viability, T/C (second compound 3.16 µM, first compound 0.001 µM) 94.8% | viability, T/C (second compound 3.16 µM, first compound 0.00316 µM) 92% | viability, T/C (second compound 3.16 µM, first compound 0.01 µM) 84.4% | viability, T/C [9] 80.1% | viability, T/C [10] 66.7% | viability, T/C (second compound 10 µM, first compound 0.000316 µM) 84.9% | viability, T/C (second compound 10 µM, first compound 0.001 µM) 82.9% | viability, T/C (second compound 10 µM, first compound 0.00316 µM) 87.4% | viability, T/C (second compound 10 µM, first compound 0.01 µM) 77% | viability, T/C [11] 69.6% | viability, T/C [12] 62.2%

C[C@@H](NC(=O)c1ncnc(N)c1Cl)c1ncc(C(=O)Nc2cc(C(F)(F)F)c(Cl)cn2)s1 + C#Cc1c(F)ccc2cc(O)cc(-c3ncc4c(N5CC6CCC(C5)N6)nc(OCC56CCCN5CC(F)C6)nc4c3F)c12
> 10 µM: IC50 (second compound 0.0316 µM) | IC50 (second compound 0.1 µM) | IC50 (second compound 0.316 µM) | IC50 (second compound 1 µM) | IC50 (second compound 3.16 µM) | IC50 (second compound 10 µM)
inactive: viability, T/C [1] 114% | viability, T/C [2] 117% | viability, T/C (second compound 0.0316 µM, first compound 0.316 µM) 118% | viability, T/C (second compound 0.0316 µM, first compound 1 µM) 126% | viability, T/C (second compound 0.0316 µM, first compound 3.16 µM) 129% | viability, T/C (second compound 0.0316 µM, first compound 10 µM) 103% | viability, T/C [3] 115% | viability, T/C [4] 126% | viability, T/C (second compound 0.1 µM, first compound 0.316 µM) 130% | viability, T/C (second compound 0.1 µM, first compound 1 µM) 127% | viability, T/C (second compound 0.1 µM, first compound 3.16 µM) 128% | viability, T/C (second compound 0.1 µM, first compound 10 µM) 106% | viability, T/C [5] 112% | viability, T/C [6] 121% | viability, T/C (second compound 0.316 µM, first compound 0.316 µM) 120% | viability, T/C (second compound 0.316 µM, first compound 1 µM) 127% | viability, T/C (second compound 0.316 µM, first compound 3.16 µM) 130% | viability, T/C (second compound 0.316 µM, first compound 10 µM) 106% | viability, T/C [7] 114% | viability, T/C [8] 115% | viability, T/C (second compound 1 µM, first compound 0.316 µM) 122% | viability, T/C (second compound 1 µM, first compound 1 µM) 112% | viability, T/C (second compound 1 µM, first compound 3.16 µM) 126% | viability, T/C (second compound 1 µM, first compound 10 µM) 102% | viability, T/C [9] 100% | viability, T/C [10] 108% | viability, T/C (second compound 3.16 µM, first compound 0.316 µM) 115% | viability, T/C (second compound 3.16 µM, first compound 1 µM) 115% | viability, T/C (second compound 3.16 µM, first compound 3.16 µM) 114% | viability, T/C (second compound 3.16 µM, first compound 10 µM) 92.7% | viability, T/C [11] 95.8% | viability, T/C [12] 108% | viability, T/C (second compound 10 µM, first compound 0.316 µM) 114% | viability, T/C (second compound 10 µM, first compound 1 µM) 100% | viability, T/C (second compound 10 µM, first compound 3.16 µM) 111% | viability, T/C (second compound 10 µM, first compound 10 µM) 86.2%
